According to patent US8946275B2, “Treatment of cancer using hypoxia activated prodrugs” (Threshold Pharmaceuticals, Inc., priority 2008, dated 2015):

Key:
[1] = tested on: H460 NSCLC; assay: H460 ectopic tumor model, TH-302 with carboplatin; format: in vivo, nude mice; details: Carboplatin 20 mg/kg IV Q7Dx2; TH-302 100 mg/kg IP Q7Dx2; alone or combined
Description: (§1) Anti-tumor activity was evaluated by tumor growth inhibition (TGI) and tumor growth delay (TGD). Body weight change, gross and microscopic assessment of tissue changes, and hematologic assays served for toxicity assessment.
(§2) Testing in these models was conducted generally as follows. 1×10^6 H460 human non-small cell lung cancer or HT1080 human fibrosarcoma cells were implanted in the subcutaneous space of the right flank to obtain ectopic xenograft models. For the orthotopic pancreatic model, red-fluorescent protein (RFP) expressing MIA PaCa2 tumors were surgically implanted on the surface of the pancreas. The prostate metastatic model was created by the intraventricular injection of 3×10^6 luciferase-expressing PC-3 cells. […] API grade of TH-302 was used in all experiments while docetaxel, gemcitabine, doxorubicin and pemetrexed were purchased from commercial sources.
Inhibition of tumor growth after administration of TH-302 and carboplatin was greater than for either drug individually in an ectopic tumor model using H460 cells.

[2] = tested on: H460 human non-small cell lung cancer; assay: H460 ectopic xenograft, TH-302/docetaxel dosing schedules; format: in vivo, nude mice; details: single agent, TH-302 100 mg/kg ip once or Docetaxol 10 mg/kg iv once
Description: (§3) Anti-tumor activity was evaluated by tumor growth delay (TGD) and tumor growth inhibition (TGI). Body weight change, gross and microscopic assessment of tissue changes, and hematologic assays served for toxicity assessment. Testing in these models was conducted generally as follows. 1×10^6 (H460 human non-small cell lung cancer or HT1080 human fibrosarcoma cells) or 3×10^6 (PC-3 human prostate cancer cells) were implanted in the subcutaneous space of the right flank to obtain ectopic xenograft models. Randomization and dosing was initiated when tumors reached a certain size (100-150 mm^3). API grade of TH-302 was used in all experiments while docetaxel, gemcitabine, cisplatin, pemetrexed, and doxorubicin were purchased from commercial sources.
The H460 cells were prepared in 30% Matrigel and 70%. RPMI1640. Mice were anesthetized by isoflurane and were implanted subcutaneously with 1×10^6 cells (in 200 μl) at the flank position. We selected 110 mice bearing similar size tumors (˜100 mm^3) for the study. Mice bearing similar tumor size were randomly assigned into different groups. Treatment started on day 1 (7 days after tumor implantation) except as noted. […] Animals were observed daily and tumor measurements and body weights recorded twice weekly.

[3] = tested on: PC-3 human prostate cancer cells; assay: PC-3 ectopic xenograft, TH-302/docetaxel dosing schedules; format: in vivo, nude mice; details: single agent, TH-302 150 mg/kg ip once or Docetaxol 10 mg/kg iv once
[4] = tested on: Calu6 NSCLC; assay: Calu-6 ectopic tumor model, TH-302 with doxorubicin; format: in vivo, nude mice; details: Dox 4 mg/kg IV Q7Dx2; TH-302 50 mg/kg IP QDx5/wkx2wks; alone or combined
[5] = tested on: HT1080 human fibrosarcoma cells; assay: HT1080 ectopic xenograft, TH-302/doxorubicin dosing schedules; format: in vivo, nude mice; details: single agent, TH-302 100 mg/kg ip 1/wkx2wks or Dox 4 mg/kg iv 1/wkx2wks
Description: as §3
(§4) The H460 cells were prepared in 30% Matrigel and 70%. RPMI1640. Mice were anesthetized by isoflurane and were implanted subcutaneously with 1×10^6 cells (in 200 μl) at the flank position. We selected 110 mice bearing similar size tumors (˜100 mm^3) for the study. Mice bearing similar tumor size were randomly assigned into different groups. Treatment started on day 1 (7 days after tumor implantation) except as noted. TH-302 was administered intraperitoneally (IP) at 150 mg/kg, and docetaxel was administered intravenously (IV) at 10 mg/kg. Animals were observed daily and tumor measurements and body weights recorded twice weekly.
In a study conducted substantially as described above except the cells implanted were HT1080 human fibrosarcoma cells and 1×10^6 cells were implanted and mice were randomized into separate groups when their […]

[6] = tested on: HT29 colon cancer; assay: HT-29 ectopic tumor model, TH-302 with 5FU; format: in vivo, nude mice; details: 5-FU 50 mg/kg IV Q3Dx4; TH-302 150 mg/kg IP Q7Dx3; alone or combined
[7] = tested on: H460 NSCLC cells; assay: H460 ectopic xenograft, TH-302/pemetrexed dosing schedules; format: in vivo, nude mice; details: single agent, TH-302 100 mg/kg ip Q7Dx2 or PMX 150 mg/kg ip Q7Dx2
Description: as §3, §4
In a study conducted substantially as described above except the cells implanted were H460 NSCLC cells and 1×10^6 cells were implanted and mice were randomized into separate groups when their tumors reached ˜100 mm^3 and the chemotherapeutic employed was pemetrexed at a dose of 150 mg/kg given once a week (Q7D) for two weeks IP and the TH-302 was given at 100 mg/kg given once a week (Q7D) for two weeks IP. […]

[8] = tested on: H460 NSCLC; assay: H460 ectopic lung cancer model, TH-302 with pemetrexed; format: in vivo, nude mice; details: PMX 150 mg/kg 1/wkx2wks IP; TH-302 50 mg/kg 5/wkx2wks IP; alone or combined
Description: as §1, §2

[9] = single agent, Phase I study; cited from earlier work
[10] = tested on: orthotopic prostate cancer PC-3 cells; assay: Orthotopic PC-3 prostate cancer model, TH-302 with Taxol; format: in vivo, mice; details: single agents: Taxol 12 mg/kg; TH-302 30 or 50 mg/kg
Description: TH-302 was tested as monotherapy and in combination with Taxol (paclitaxel) in animals bearing highly invasive and metastatic orthotopic prostate cancer PC-3 cells. Animals were randomized into 6 groups of 8 mice each and then treated either with vehicle; Taxol (12 mg/kg, IV, twice a week for 4 consecutive weeks); TH-302 (30 or 50 mg/kg, IP, once a day for 5 days a week for 2 consecutive weeks); or Taxol in combination with TH-302 (using the same single agent regimens).

SMILES: N.N.O=C([O-])C1(C(=O)[O-])CCC1.[Pt+2] [Carboplatin, carboplatin, reference compound]
- Days to 500 mm^3 [1]: 11.5 days
- Days to 1000 mm^3 [1]: 18.5 days
- T/C [1]: 69.7%
- TGD500, Days (vs. vehicle) [1]: 2 days
- TGD1000, Days (vs. vehicle) [1]: 4.5 days
- TGI [1]: 30.3%
- Tn (tumor volume on Day n) [1]: 855.6

SMILES: CC(=O)O[C@@]12CO[C@@H]1C[C@H](O)[C@@]1(C)C(=O)[C@H](O)C3=C(C)[C@@H](OC(=O)[C@H](O)[C@@H](NC(=O)OC(C)(C)C)c4ccccc4)C[C@@](O)([C@@H](OC(=O)c4ccccc4)[C@H]21)C3(C)C [Docetaxol, docetaxel, reference compound]
- Days to 500 mm^3 [2]: 18 days
- Days to 1000 mm^3 [2]: 27 days
- T/C [2]: 57.6%
- TGD500, Days (vs. vehicle) [2]: 5 days
- TGD1000, Days (vs. vehicle) [2]: 7 days
- TGI [2]: 42.4%
- Tn (tumor volume on Day n) ([2]; in mm³): 681.36
- Days to 500 mm^3 [3]: 26 days
- T/C [3]: 49.1%
- TGD500, Days (vs. vehicle) [3]: 10 days
- TGI [3]: 50.9%
- Tn (tumor volume on Day n) ([3]; in mm³): 563.22

SMILES: COc1cccc2c1C(=O)c1c(O)c3c(c(O)c1C2=O)C[C@@](O)(C(=O)CO)C[C@@H]3O[C@H]1C[C@H](N)[C@H](O)[C@H](C)O1 [Dox, doxorubicin, reference compound]
- Days to 500 mm^3 [4]: 27 days
- Days to 1000 mm^3 [4]: 35 days
- T/C [4]: 67.7%
- TGD500, Days (vs. vehicle) [4]: 9 days
- TGD1000, Days (vs. vehicle) [4]: 4 days
- TGI [4]: 32.3%
- Tn (tumor volume on Day n) [4]: 773.97
- Days to 500 mm^3 [5]: 24 days
- T/C [5]: 5.1%
- TGD500, Days (vs. vehicle) [5]: 12 days
- TGI [5]: 94.9%
- Tn (tumor volume on Day n) [5]: 154.79

SMILES: O=c1[nH]cc(F)c(=O)[nH]1 [Formulation 5-FU, 5-fluorouracil, reference compound]
- Days to 500 mm^3 [6]: 31 days
- Days to 1000 mm^3 [6]: 43 days
- T/C [6]: 43.1%
- TGD500, Days (vs. vehicle) [6]: 9 days
- TGD1000, Days (vs. vehicle) [6]: 11 days
- TGI [6]: 56.9%
- Tn (tumor volume on Day n) [6]: 514.11

SMILES: Nc1nc2[nH]cc(CCc3ccc(C(=O)N[C@@H](CCC(=O)O)C(=O)O)cc3)c2c(=O)[nH]1 [PMX, pemetrexed, reference compound]
- Days to 500 mm^3 [7]: 14 days
- Days to 1000 mm^3 [7]: 24 days
- T/C [7]: 72.4%
- TGD500, Days (vs. vehicle) [7]: 2 days
- TGD1000, Days (vs. vehicle) [7]: 3 days
- TGI [7]: 27.6%
- Tn (tumor volume on Day n) [7]: 817.45
- Days to 500 mm^3 [8]: 19 days
- Days to 1000 mm^3 [8]: 29 days
- T/C [8]: 70.2%
- TGD500, Days (vs. vehicle) [8]: 5 days
- TGD1000, Days (vs. vehicle) [8]: 5 days
- TGI [8]: 29.8%
- Tn (tumor volume on Day n) [8]: 850.21

SMILES: CS(=O)(=O)OCCN(CCBr)c1c(C(=O)NCCOP(=O)(O)O)cc([N+](=O)[O-])cc1[N+](=O)[O-] [PR104]
- Maximum tolerated dose (MTD) and recommended dose [9]: 1,100 mg/m^2

SMILES: CC(=O)O[C@H]1C(=O)[C@@]2(C)[C@H]([C@H](OC(=O)c3ccccc3)[C@]3(O)C[C@H](OC(=O)[C@H](O)[C@@H](NC(=O)c4ccccc4)c4ccccc4)C(C)=C1C3(C)C)[C@]1(OC(C)=O)CO[C@@H]1C[C@@H]2O [Taxol, paclitaxel, reference compound]
- Primary tumor growth during the treatment period [10]: significantly inhibited primary tumor growth
